Experimental findings from patent US20090227578A1, “Azabenzimidazole Derivatives, Their Manufacture and Use as Anti-Cancer Agents” (priority 2005, published 2009) are described below.

Experiment [1] deals with T1, Src (p60c-src, partially purified, Upstate) (Homo sapiens, UniProt P12931).
T1 construct: purchased UBI, Upstate Biotech, Inc
Kind of experiment: SRC-Inhibitor-Assay, time-resolved fluorescence kinase assay (Src). As to conditions: ATP 5 μM; peptide 10 μM; enzyme pre-incubated 15 min at 15° C. with inhibitor. It counts as biochemical. The protocol:
(§1) SRC-Inhibitor-Assay Parameters:
(§2) Peptides: Ro: NH2-A-E-E-E-I—Y-G-E-F-E-A-K—K—K—K—CONH2, and
(§3) • Ja133-Ro: Ja133-G-Aminocaprylic acid-A-E-E-E-I—Y-G-E-F-E-A-K—K—K—K—CONH2, wherein Ja133 is LightCycler-Red 640-N-hydroxy succinimide ester; • whereby both peptides were synthesized by an optimized solid phase peptide synthesis protocol (Merrifield, Fed. Proc. Fed. Amer. Soc. Exp. Biol. 21 (1962) 412) on a Zinsser SMP350 peptide synthesizer. Shortly, the peptide was assembled on 160 mg (22.8 μmol scale) of a Rink-Linker modified polystyrene solid phase by repeatedly conjugating an twenty fold excess of amino acids each protected by temporary piperidine labile Fmoc- and permanent acid labile tert-Bu-, BOC- and O-tert-Bu-groups depending on the side chain function. The substrate sequence […] was N-terminal additionally mounted with the spacer amino acids Aminocaprylic acid and Glycin. After cleavage of the N-terminal temporary protecting group the still attached and protected peptide was labeled with a 1.5 fold amount of LightCycler-Red 640-N-hydroxy succinimide ester (purchased from Roche Diagnostics GmbH) and triethylamine. After 3 hrs. the resin was washed with Dimethylformamide and Isopropanol until the eluates of the blue resin got colourless. […] The substrate was finally isolated by a preparative reverse phase HPLC purification.
(§4) ATP, Tween 20, 4-(2-hydroxyethyl)-1-piperazineethanesulfonic acid (HEPES) were purchased from Roche Molecular Biochemicals, MgCl2 and MnCl2 were purchased from Merck Eurolab, Tris(2-carboxyethyl)phosphine hydrochloride (TCEP) was purchased from Pierce, 384 Well low volume fluorescence plates was purchased from Falcon.
(§5) At first the enzyme is pre-incubated for 15 min. at 15° C. in aqueous solution with corresponding amounts of inhibitors according to this invention. Then the phosphorylation reaction is started by adding a reaction mixture, containing ATP, Peptide and PT66, and subsequent shaking. The proceeding of this reaction is immediately monitored using time resolved fluorescence spectroscopy in a suitable well plate reader.
(§6) The IC50-values can be obtained from the reaction rates by using a non-linear curve fit (XLfit software (ID Business Solution Ltd., Guilford, Surrey, UK))

The target of experiment [2] is T2, Lck (p56lck, active, Upstate) (Homo sapiens, UniProt P06239).
T2 construct: purchased UBI, Upstate Biotech, Inc
Kind of experiment: SRC-Inhibitor-Assay, time-resolved fluorescence kinase assay (Lck). It counts as biochemical. The following applies: ATP 5 μM; peptide 10 μM; enzyme pre-incubated 15 min at 15° C. with inhibitor.
Text: The activity of the compounds according to this invention as protein kinase inhibitors, in particular for the src-family tyrosine kinases, was shown by using the following assay.
as §1
Eu-labelled phosphotyrosine antibody:—for Lck Cisbio Mab PT66-K, • for Src EG&G Wallac PT66 Eu-W1024 (all commercially available).
as §2
as §3, with “purification. The purification yielded 12.2 mg RP-HPLC single peak pure blue material (lyophilisate). The identity was proven by MALDI mass spectroscopy [2720.0]. • Enzymes: Upstate Lck (p56^lck, active), Upstate Src (p60^c-src, partially purified) were purchased from UBI, Upstate Biotech, Inc. Time-resolved Fluorescence Assay: Reader: Perkin Elmer, Wallac Viktor 1420-040 multilabel counter; Liquid handling system: Beckman Coulter, Biomek 2000.” for “purification.”
as §4, §5, §6

T2 sequence (P06239 whole entry): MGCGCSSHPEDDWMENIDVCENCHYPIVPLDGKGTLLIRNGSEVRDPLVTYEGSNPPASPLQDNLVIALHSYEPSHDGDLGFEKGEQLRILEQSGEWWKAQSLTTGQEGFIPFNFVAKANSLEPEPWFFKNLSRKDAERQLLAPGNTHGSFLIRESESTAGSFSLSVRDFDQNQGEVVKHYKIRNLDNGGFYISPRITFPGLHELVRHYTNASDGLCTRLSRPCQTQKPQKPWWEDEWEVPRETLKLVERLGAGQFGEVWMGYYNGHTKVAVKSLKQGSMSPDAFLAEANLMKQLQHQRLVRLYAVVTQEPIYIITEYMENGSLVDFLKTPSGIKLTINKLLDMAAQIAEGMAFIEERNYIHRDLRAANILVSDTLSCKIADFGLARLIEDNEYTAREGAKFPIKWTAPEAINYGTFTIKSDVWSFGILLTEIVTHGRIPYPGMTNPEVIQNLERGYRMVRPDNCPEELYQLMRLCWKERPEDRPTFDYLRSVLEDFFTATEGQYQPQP
T1 sequence (P12931 whole entry): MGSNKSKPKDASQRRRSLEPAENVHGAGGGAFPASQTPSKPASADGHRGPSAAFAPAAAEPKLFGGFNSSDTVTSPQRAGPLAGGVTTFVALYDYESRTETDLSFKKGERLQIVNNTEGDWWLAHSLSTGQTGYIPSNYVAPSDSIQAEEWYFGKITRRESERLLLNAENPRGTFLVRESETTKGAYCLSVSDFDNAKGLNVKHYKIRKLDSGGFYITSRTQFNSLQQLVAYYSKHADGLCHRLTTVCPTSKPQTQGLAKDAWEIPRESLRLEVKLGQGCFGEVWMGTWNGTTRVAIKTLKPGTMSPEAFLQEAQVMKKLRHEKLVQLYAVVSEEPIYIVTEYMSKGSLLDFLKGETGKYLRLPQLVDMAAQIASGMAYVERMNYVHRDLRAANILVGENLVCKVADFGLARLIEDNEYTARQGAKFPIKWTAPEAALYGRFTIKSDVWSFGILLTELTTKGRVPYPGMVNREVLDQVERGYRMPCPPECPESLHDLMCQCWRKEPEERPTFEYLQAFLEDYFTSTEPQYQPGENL

`Cc1ccc(NC(=O)c2ccccc2)cc1C(=O)Nc1cnc2[nH]c(-c3ccccc3)nc2c1` [Example 1-5, 5-Benzoylamino-2-methyl-N-(2-phenyl-3H-imidazo[4,5-b]pyridin-6-yl)-benzamide]: the half-inhibitory concentration (IC50) in experiment [1] and in experiment [2] was 10 to 100 nM each time.
In the case of `O=C(Nc1ccc(Cl)c(C(=O)Nc2cnc3[nH]c(-c4ccccc4)nc3c2)c1)c1ccccc1` [Example 2-5, 5-Benzoylamino-2-chloro-N-(2-phenyl-3H-imidazo[4,5-b]pyridin-6-yl)-benzamide], in experiment [2], the IC50 was in the range of 10 to 100 nM.
As for `Cc1ccc(NC(=O)/C=C/c2ccccc2)cc1C(=O)Nc1cnc2[nH]c(-c3ccccc3)nc2c1` [Example 1-4, 2-Methyl-5-[(E)-(3-phenyl-acryloyl)amino]-N-(2-phenyl-3H-imidazo[4,5-b]pyridin-6-yl)-benzamide], the IC50 in experiment [1] and in experiment [2] was 10 to 100 nM throughout.
With `Cc1ccc(NC(=O)/C=C/c2cccnc2)cc1C(=O)Nc1cnc2[nH]c(-c3ccccc3)nc2c1` [Example 1-2, 2-Methyl-N-(2-phenyl-3H-imidazo[4,5-b]pyridin-6-yl)-5-((E)-3-pyridin-3-yl-acryloylamino)-benzamide], the IC50 in experiment [1] and in experiment [2] was 10 to 100 nM each time.
Consider `Cc1ccc(NC(=O)c2cccc(-c3ccccc3)c2)cc1C(=O)Nc1cnc2[nH]c(-c3ccccc3)nc2c1` [Example 1-6, Biphenyl-3-carboxylic acid[4-methyl-3-(2-phenyl-3H-imidazo[4,5-b]pyridin-6-ylcarbamoyl)-phenyl]-amide], for which the values for the IC50 in experiment [1] and in experiment [2] were 10 to 100 nM and 100 to 1000 nM, respectively.
On to `Cc1ccc(NC(=O)c2ccc(N3CCOCC3)cc2)cc1C(=O)Nc1cnc2[nH]c(-c3ccccc3)nc2c1` [Example 1-3, 2-Methyl-5-(4-morpholin-4-yl-benzoylamino)-N-(2-phenyl-3H-imidazo[4,5-b]pyridin-6-yl)-benzamide], for which the IC50 in experiment [1] came out at 43 nM; in experiment [2] it was 64 nM.
In experiment [2], `O=C(/C=C/c1ccccc1)Nc1ccc(Cl)c(C(=O)Nc2cnc3[nH]c(-c4ccccc4)nc3c2)c1` [Example 2-2, 2-Chloro-5-[(E)-(3-phenyl-acryloyl)amino]-N-(2-phenyl-3H-imidazo[4,5-b]pyridin-6-yl)-benzamide] had an IC50 of 10 to 100 nM.
Regarding `Cc1ccc(NC(=O)/C=C/c2ccncc2)cc1C(=O)Nc1cnc2[nH]c(-c3ccccc3)nc2c1` [Example 1-1, 2-Methyl-N-(2-phenyl-3H-imidazo[4,5-b]pyridin-6-yl)-5-((E)-3-pyridin-4-yl-acryloylamino)-benzamide], the IC50 in experiment [1] lay within 100 to 1000 nM; in experiment [2], 10 to 100 nM.
For `O=C(Nc1ccc(Cl)c(C(=O)Nc2cnc3[nH]c(-c4ccccc4)nc3c2)c1)c1cccc(-c2ccccc2)c1` [Example 2-4, Biphenyl-3-carboxylic acid[4-chloro-3-(2-phenyl-3H-imidazo[4,5-b]pyridin-6-ylcarbamoyl)-phenyl]-amide] the same measures were 64 nM and 200 nM.
For `O=C(Nc1ccc(Cl)c(C(=O)Nc2cnc3[nH]c(-c4ccccc4)nc3c2)c1)c1ccc(N2CCOCC2)cc1` [Example 2-1, 2-Chloro-5-(4-morpholin-4-yl-benzoylamino)-N-(2-phenyl-3H-imidazo[4,5-b]pyridin-6-yl)-benzamide] the same measures were 10 to 100 nM and 10 to 100 nM.

What is called IC50 is the concentration at which inhibition is half-maximal. A low value points to greater potency.
